Patent US11680298B2, “Method of identifying risk of cancer and therapeutic options” (Agency for Science, Technology and Research, priority 2016, dated 2023)

Legend:
HCC1937 = assay: Tumoursphere growth, HCC1937; assay type: cell-based; settings: HCC1937, negative for 1q21.3 amplification, high phospho-IRAK1 and phospho-JAK2
Procedure: For this purpose, the 1q21.3 gene amplification in a series of breast cancer cell lines was profiled using ddPCR (FIG. 6A). Of note, 1q21.3 status in these cell lines was in general correlated with phospho-IRAK1 and expression of S100A8/9 (FIG. 6B and FIG. 14A), but not with phospho-JAK2 status (FIG. 6B).
Mammosphere Formation Assay PDX-derived tumoursphere cells were trypsinized and passed through 40 μm cell strainer to achieve single cell suspensions. 3×10^4 cells were seeded in 6-well ultra-low attachment plates (Corning, N.Y.; CLS3471) in serum-free DMEM/F12 supplemented with N2 and B27 (Gibco, Grand Island, N.Y.), 20 ng/ml epidermal growth factor (MACS, Auburn, Calif.), 20 ng/ml basic fibroblast growth factor (MACS, Auburn, Calif.), 0.2 μM Thiazovivin ([…] Technologies, Vancouver, BC) and penicillin/streptomycin (Gibco, Carlsbad, Calif.). For breast cancer cell lines and MCF10A cell line, 3×10^4 cells were seeded in 6-well ultra-low attachment plates in Mammocult medium (Stem Cell Technologies, Vancouver, BC, Canada), supplemented with fresh hydrocortisone (0.5 μg/ml) and heparin (1:500). […] After 7-9 days, mammospheres were stained with INT (2-(4-iodophenyl)-3-(4-nitrophenyl)-5-phenyl-2H-tetrazolium chloride, Sigma-Aldrich) and quantified. Imaging and quantification were done using GelCount apparatus and associated software (Oxford Optronix, Abingdon, UK). […]

HCC70 xenograft tumours = assay: In vivo pacritinib sensitivity test, HCC70 orthotopic xenograft; set-up: species or system NOD-SCID mice; settings: 1q21.3-amplified HCC70; 50, 100 and 150 mg/kg pacritinib daily by oral gavage for 21 days
MB231 tumours = assay: In vivo pacritinib sensitivity test, MB231 orthotopic xenograft; set-up: species or system NOD-SCID mice; settings: 1q21.3 non-amplified MB231; 50, 100 and 150 mg/kg pacritinib daily by oral gavage for 21 days
[1] = Tolerability during treatment in the PDX mouse model; settings: in vivo
Procedure: Surgical procedures and experiments were conducted in compliance with animal protocols approved by the A*STAR-Biopolis Institutional Animal Care and Use Committee of Singapore (IACUC). 6-8 wk old female NOD/MrkBomTac-Prkdcscid mice were purchased from InVivos (Singapore). For PDX orthotopic xenotransplantation, tissue suspension was first prepared from whole tumour explant from mammary fat pad of immunodeficient mice. Whole tumours were washed in PBS, minced with sterile scalpel and triturated until cells could pass through needle bore. The PDX cell suspension was resuspended in reduced Matrigel (BD Bioscience, Cat No: 356230), and then 10 μl was injected into the mammary fat pad. Autoclips was used for primary wound closure. Mice were observed post-procedure for 1-2 hr, and their body weights and wound healing were monitored weekly. Tumours were measured by vernier caliper twice weekly and the tumour volume was calculated with the following formula: V=W×W×L/2.
For in vivo PDX model, each mouse bore one PDX tumour on one side of the mammary fat pad. After the tumours reach 100 mm^3, the mice were randomized into two groups: Vehicle treated control tumour (n=4) and paclitaxel treated tumour ([…]). […] Following the drug treatments, the tumours were monitored for approximately one month. […]

IRAK1 = IRAK1 (Homo sapiens, UniProt P51617); assay: Western blot of phospho-IRAK1 in HCC70 xenograft; assay type: in vivo, NOD-SCID mice; set-up: For protein extraction of xenograft tumours, snap frozen samples were resuspended in RIPA buffer; from tissue; host or cells: HCC70 xenograft tumour from NOD-SCID mice; settings: HCC70 xenograft (n=4) treated with pacritinib
Procedure: Mice were then dosed daily by oral gavage for 21 days. Tumour growth was monitored for 1 month.
All immunoblots shown in this specification represent at least two independent experiments. In brief, cells were washed with PBS and lysed in RIPA buffer supplemented with protease and phosphatase inhibitors and further sonicated using an XL2000 Microson Ultrasonice Processor (Misonix). Equal amounts of protein extract were separated on SDS-polyacrylamided gels and transferred to PVDF membranes. Membranes were further blocked with 5% milk or BSA, and then probed with the following antibodies: anti-IRAK1 was purchased from Santa Cruz Biotechnology (Santa Cruz, Calif.; sc-7883), anti-phospho-IRAK1 (T209) was purchased from Assay Biotech (Sunnyvale, Calif.; A1074), anti-JAK2 (Danvers, Mass.; #3230) and anti-phospho-JAK2 ([…]) (Danvers, Mass.: #3774) were purchased from Cell Signaling Technology, anti-actin was purchased from Sigma Aldrich CA; A5441). For protein extraction of xenograft tumours, snap frozen samples were resuspended in RIPA buffer supplemented with protease and phosphatase inhibitors and homogenized with QIAGEN TissueLyzer II as described by the manufacturer, followed by immunoblotting as described above.

IRAK1, sequence (P51617 whole entry): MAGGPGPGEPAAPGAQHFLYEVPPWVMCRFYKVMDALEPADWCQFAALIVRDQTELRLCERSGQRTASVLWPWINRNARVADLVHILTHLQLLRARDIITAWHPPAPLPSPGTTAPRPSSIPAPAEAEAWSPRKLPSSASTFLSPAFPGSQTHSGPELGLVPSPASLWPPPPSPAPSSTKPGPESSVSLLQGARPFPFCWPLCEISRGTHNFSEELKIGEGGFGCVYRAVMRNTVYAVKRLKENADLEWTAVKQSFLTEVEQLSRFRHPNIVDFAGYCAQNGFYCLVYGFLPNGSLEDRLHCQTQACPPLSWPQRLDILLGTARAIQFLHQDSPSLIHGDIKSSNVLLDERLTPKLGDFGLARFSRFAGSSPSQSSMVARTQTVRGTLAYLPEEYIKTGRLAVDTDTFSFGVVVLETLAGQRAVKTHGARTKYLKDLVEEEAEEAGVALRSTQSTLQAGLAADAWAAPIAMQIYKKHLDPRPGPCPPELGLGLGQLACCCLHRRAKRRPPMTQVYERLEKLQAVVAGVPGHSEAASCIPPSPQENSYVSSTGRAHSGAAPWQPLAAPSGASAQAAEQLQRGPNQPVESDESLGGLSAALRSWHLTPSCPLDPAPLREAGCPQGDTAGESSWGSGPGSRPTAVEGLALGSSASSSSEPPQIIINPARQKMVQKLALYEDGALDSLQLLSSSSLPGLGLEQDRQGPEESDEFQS

C1=C/COCc2cc(ccc2OCCN2CCCC2)Nc2nccc(n2)-c2cccc(c2)COC/1 [pacritinib]
sensitivity to pacritinib (HCC1937): sensitive to pacritinib treatment | tumour growth (HCC70 xenograft tumours): substantial inhibition in tumour growth | tumour growth (MB231 tumours): no obvious effect | tolerability [1]: tolerated very well | toxicity and body weight loss [1]: no obvious toxicity and body weight loss | phospho-IRAK1 level in xenograft (IRAK1): downregulation of phospho-IRAK1
